Measured values taken from US5866787A, “Transgenic plants co-expressing a functional human 2-5A system” (Cleveland Clinic Foundation, priority 1995, dated 1999).
Blank lines part the entries; values can stand above or below the molecule they belong to.

Tests used:
[1] = tested on: recombinant human 2-5A-dependent RNase; assay: UV covalent crosslinking of 2-5A probe with competitors, human enzyme; format: binding; conditions: competitor 100 nM; recombinant human enzyme produced in wheat germ extract
Description: FIG. 5A is specific affinity of recombinant human 2-5A-dependent RNase for 2-5A. Crosslinking of the 2-5A probe (lanes 1-7) to protein is performed after translation reaction in wheat germ extract (5 λl) with human 2-5A-dependent RNase mRNA (lanes 1-3) or without added RNA (lane 4) or in extract of human interferon a treated (1000 units per ml for 16 h) human HeLa cells (350 μg of protein) (lanes 5-7). Reactions were without added competitor (lanes 1, 4, and 5) or in the presence of either timer core, (A2'p)2 A, (100 nM) (lanes 2 and 6) or timer 2-5A, p3 (A2'p)2 A (100 nM) (lanes 3 and 7). Incubations with ^35 S-methionine are shown in lanes 8 to 12. Lane 8 is with wheat germ extract and human 2-5A-dependent RNase mRNA. Reticulocyte lysate preadsorbed to 2-5A-cellulose is incubated with human 2-5A-dependent RNase mRNA in the absence (lane 9) or presence (lane 10) of cycloheximide, or in the absence of added mRNA (lane 11). […] The positions and relative molecular masses (in kDa) of the marker proteins are indicated.
The synthesis of the 2-5A probe, p(A2'p)2 (br^8 A2'p)2 A[32P]Cp, and its crosslinking to 2-5A-dependent RNase is performed exactly as described. See Nolan-Sorden, N. L. et al., Anal. Biochem., 184:298-304 (1990). […]

[2] = tested on: murine 2-5A-dependent RNase (truncated recombinant clone ZB1 and murine L cell enzyme); assay: UV covalent crosslinking of 32P-2-5A probe with unlabeled oligonucleotide competitors, murine enzyme; format: binding; conditions: for competition with 2-5A probe binding: competitor 100 nM, recombinant 74 kDa protein produced in wheat germ extract
Description: FIG. 2A is a specific affinity of truncated murine 2-5A-dependent RNase for 2-5A. UV covalent crosslinking of the ^32 P-2-5A probe (lanes 1-7) to protein is performed after translation reactions in wheat germ extract (5 μl) with murine 2-5A-dependent RNase mRNA (from clone ZB1) (lanes 1-3) or without added RNA (lane 4) or in extract of interferon treated mouse L cells (100 μg of protein) (lanes 5-7). Reactions are without added competitor (lanes 1, 4, and 5) or in the presence of either timer core. (A2'p)2 A, (100 nM) (lanes 2 and 6) or timer 2-5A, p3 (A2'p)2 A (100 nM) (lanes 3 and 7).
Autoradiograms of the dried SDS/10% polyacrylamide gels are shown. Concentrations of the oligonucleotide competitors are indicated. […].
(§1) The synthesis of the 2-5A probe, p(A2'p)2 (br^8 A2'p)2 A[32P]Cp, and its crosslinking to 2-5A-dependent RNase is performed exactly as described. See Nolan-Sorden, N. L. et al., Anal. Biochem., 184:298-304 (1990). Briefly, the 2-5A probe, about 0.7 to 2.5 nM at […], is incubated for about one hour on ice with cell extract prepared as described, Silverman, R. H. and Krause, D., I.R.L. Press, Oxford, England, pp. 149-193 (1987), in the absence or presence of unlabeled oligonucleotide competitors. Covalent crosslinking is done under a uv lamp (308 nm) for one hour on ice and the proteins are separated on SDS/10% polyacrylamide gels. Filter assays for 2-5A binding activity using the 2-5A probe for about one hour on ice, as described in Knight, M. et al., Nature, 288:189-192 (1980).

2-5A probe = assay: 2-5A binding activity of nested 3'-deletion clones (filter binding and uv crosslinking); conditions: produced in wheat germ extract
Source text: See Example and Knight et al. 1980). The positions of the P-loop motifs and the lengths of the translation products are indicated. Clone ZB1 encodes for amino acids designated as 1-656 in Table 2, except for the last 5 amino acid residues which are Lys, Pro, Leu, Ser, and Gly. Clone ZB2 encodes for amino acids designated as 1-619 in Table 2. Clone ZB3 encodes for amino acids designated as 1-515 in Table 2. Clone ZB5 encodes for amino acids designated as 1-474 in Table 2. Clone ZB9 encodes for amino acids designated as 1-403 in Table 2. Clone ZB10 encodes for amino acids designated as 1-365 in Table 2. Clone ZB13 encodes for amino acids designated as 1-294 in Table 2. Clone ZB14 encodes for amino acids designated as […] in Table 2. Clone ZB15 encodes for amino acids designated as 1-218 in Table 2.
The set of nested 3'-deletions of the truncated murine 2-5A-dependent RNase cDNA, ZB1, is generated with exonuclease III/S1 nuclease digestion followed by filling-in with Klenow DNA Polymerase using the "Erase-A-Base" system (Promega).
as §1

poly(C) = assay: Ribonuclease assay with 2-5A-cellulose, poly(C) substrate; format: biochemical; conditions: after one hour of incubation
Description: (§2) FIG. 5B is reticulocyte lysate pretreated to remove endogenous 2-5A-dependent RNase and is incubated in the absence of added mRNA (.box-solid.), in the presence of human 2-5A-dependent RNase mRNA without inhibitor (.smallcircle., .quadrature.) or in the presence of both 2-5A-dependent RNase mRNA and cycloheximide (50 μg per ml (.circle-solid.). See Example I. Subsequently, the recombinant 2-5A-dependent RNase (or controls) is adsorbed to 2-5A-cellulose and ribonuclease assays are performed after extensive washing of the matrix to reduce general nuclease activity. Radiolabeled substrate RNA was either poly(U) (.smallcircle., .circle-solid., .box-solid.) or poly(C) (.quadrature.).
(§3) The ribonuclease assay with 2-5A-cellulose is performed, as described by Silverman, R. H., Anal. Biochem., 144:450-460 (1985). Briefly, lysates are adsorbed to about […] of 2-5A-cellulose on ice for about two hours. The matrix is then washed three times by centrifuging and resuspending in buffer A. See Silverman, R. H., Anal. Biochem., 144:450-460 (1985). The matrix is then incubated with poly(U)-[^32 P]Cp or poly(C)-[^32 P]Cp (both at about 16 μM in nucleotide equivalents) at about 30° C. and the levels of acid-precipitable radioactive RNA are determined by filtration on glass-fiber filters.

poly(U) = assay: Ribonuclease assay with 2-5A-cellulose, poly(U) substrate; format: biochemical; conditions: enzyme translated in reticulocyte lysate, bound to 2-5A-cellulose, 30° C.
Description: as §2, §3

[3] = 2-5A probe 2.4 nM, both recombinant and naturally occurring protein

Molecule: (A2'p)2 A
competition with 2-5A probe binding [1]: not prevented | concentration required to prevent 2-5A probe binding [2, 3]: 10 µM | competition with 2-5A probe binding [2]: fails to interfere with binding | fold higher concentration than trimer 2-5A required to prevent probe binding ([2]; relative to p3 (A2'p)2 A at about 20 nM): 500 fold

Molecule: p3 I2'pA2'pA
concentration required to prevent 2-5A probe binding [2, 3]: about 1.0 μM

Molecule: p3 A2'pA
concentration required to prevent 2-5A probe binding [2, 3]: > 10 µM

B3: recombinant human 2-5A-dependent RNase: full-length human 2-5A-dependent RNase (clone ZC5) produced in vitro in reticulocyte lysate (protein)
chain: MESRDHNNPQEGPTSSSGRRAAVEDNHLLIKAVQNEDVDLVQQLLEGGANVNFQEEEGGWTPLHNAVQMSREDIVELLLRHGADPVLRKKNGATLFILAAIAGSVKLLKLFLSKGADVNECDFYGFTAFMEAAVYGKVKALKFLYKRGANVNLRRKTKEDQERLRKGGATALMDAAEKGHVEVLKILLDEMGADVNACDNMGRNALIHALLSSDDSDVEAITHLLLDHGADVNVRGERGKTPLILAVEKKHLGLVQRLLEQEHIEINDTDSDGKTALLLAVELKLKKIAELLCKRGASTDCGDLVMTARRNYDHSLVKVLLSHGAKEDFHPPAEDWKPQSSHWGAALKDLHRIYRPMIGKLKFFIDEKYKIADTSEGGIYLGFYEKQEVAVKTFCEGSPRAQREVSCLQSSRENSHLVTFYGSESHRGHLFVCVTLCEQTLEACLDVHRGEDVENEEDEFARNVLSSIFKAVQELHLSCGYTHQDLQPQNILIDSKKAAHLADFDKSIKWAGDPQEVKRDLEDLGRLVLYVVKKGSISFEDLKAQSNEEVVQLSPDEETKDLIHRLFHPGEHVRDCLSDLLGHPFFWTWESRYRTLRNVGNESDIKTRKSESEILRLLQPGPSEHSKSFDKWTTKINECVMKKMNKFYEKRGNFYQNTVGDLLKFIRNLGEHIDEEKHKKMKLKIGDPSLYFQKTFPDLVIYVYTKLQNTEYRKHFPQTHSPNKPQCDGAGGASGLASPGC
poly(C) degraded (poly(C)): 20% | half-life of poly(U) degradation (poly(U)): about 10 minutes

B4: ZB11: murine 2-5A-dependent RNase deletion clone, amino acid residues 1 to 342 (protein, UniProt Q05921 1-342, looked up, fragment)
chain: METPDYNTPQGGTPSAGSQRTVVEDDSSLIKAVQKGDVVRVQQLLEKGADANACEDTWGWTPLHNAVQAGRVDIVNLLLSHGADPHRRKKNGATPFIIAGIQGDVKLLEILLSCGADVNECDENGFTAFMEAAERGNAEALRFLFAKGANVNLRRQTTKDKRRLKQGGATALMSAAEKGHLEVLRILLNDMKAEVDARDNMGRNALIRTLLNWDCENVEEITSILIQHGADVNVRGERGKTPLIAAVERKHTGLVQMLLSREGINIDARDNEGKTALLIAVDKQLKEIVQLLLEKGADKCDDLVWIARRNHDYHLVKLLLPYVANPDTDPPAGDWSPHSSRW
loss of 2-5A binding activity as compared to clone ZB1 (2-5A probe): about 26%

Continued, in another order:

competition with 2-5A probe binding [1]: effectively competes
Molecule: p3 (A2'p)2 A
concentration that prevents the 2-5A probe from binding [2, 3]: about 20 nM | competition with 2-5A probe binding [2]: completely prevents probe binding

2-5A binding activity, % of clone ZB1 (2-5A probe): 1.9%
B1: ZB14: murine 2-5A-dependent RNase deletion clone, amino acids 1 to 265, one P-loop motif deleted (protein, UniProt Q05921 1-265, looked up, fragment)
chain: METPDYNTPQGGTPSAGSQRTVVEDDSSLIKAVQKGDVVRVQQLLEKGADANACEDTWGWTPLHNAVQAGRVDIVNLLLSHGADPHRRKKNGATPFIIAGIQGDVKLLEILLSCGADVNECDENGFTAFMEAAERGNAEALRFLFAKGANVNLRRQTTKDKRRLKQGGATALMSAAEKGHLEVLRILLNDMKAEVDARDNMGRNALIRTLLNWDCENVEEITSILIQHGADVNVRGERGKTPLIAAVERKHTGLVQMLLSREGIN

2-5A binding activity, % of clone ZB1 (2-5A probe): about 38.3%
B2: ZB13: murine 2-5A-dependent RNase deletion clone, amino acids 1 to 294 (protein, UniProt Q05921 1-294, looked up, fragment)
chain: METPDYNTPQGGTPSAGSQRTVVEDDSSLIKAVQKGDVVRVQQLLEKGADANACEDTWGWTPLHNAVQAGRVDIVNLLLSHGADPHRRKKNGATPFIIAGIQGDVKLLEILLSCGADVNECDENGFTAFMEAAERGNAEALRFLFAKGANVNLRRQTTKDKRRLKQGGATALMSAAEKGHLEVLRILLNDMKAEVDARDNMGRNALIRTLLNWDCENVEEITSILIQHGADVNVRGERGKTPLIAAVERKHTGLVQMLLSREGINIDARDNEGKTALLIAVDKQLKEIVQLLLE

2-5A binding activity, % of clone ZB1 (2-5A probe): completely lacking
B5: ZB15: murine 2-5A-dependent RNase deletion clone, amino acids 1 to 218, both P-loop motifs deleted (protein, UniProt Q05921 1-218, looked up, fragment)
chain: METPDYNTPQGGTPSAGSQRTVVEDDSSLIKAVQKGDVVRVQQLLEKGADANACEDTWGWTPLHNAVQAGRVDIVNLLLSHGADPHRRKKNGATPFIIAGIQGDVKLLEILLSCGADVNECDENGFTAFMEAAERGNAEALRFLFAKGANVNLRRQTTKDKRRLKQGGATALMSAAEKGHLEVLRILLNDMKAEVDARDNMGRNALIRTLLNWDCENV
